Measurements from patent US20070154963A1, “Method to determine whether a compound is a cellular GSTpi inhibitor” (priority 2005, published 2007).
Numbered stars: 1 amine (or outer) side, 2 acyl side, 3 side chain; on linkers, the order of the positions; unused ones are H or OH. Square brackets hold non-standard residues; d marks the D form. Peptide text beside a SMILES is read from it. * marks the point of attachment. γGlu = O=C(O)[C@H](CCC(=O)[*:2])N[*:1]; dPhg = N[C@@H](C(=O)O)c1ccccc1; Bn = c1ccc(C*)cc1

How the values were obtained:
[1] = biological target: GST P1-1 (Homo sapiens, UniProt P09211); conditions: purified GST P1-1 isoenzyme; read-out: GST P1-1 inhibition IC50; cited from earlier work
GST P1-1, sequence (P09211 2-210 limits assumed, species assumed): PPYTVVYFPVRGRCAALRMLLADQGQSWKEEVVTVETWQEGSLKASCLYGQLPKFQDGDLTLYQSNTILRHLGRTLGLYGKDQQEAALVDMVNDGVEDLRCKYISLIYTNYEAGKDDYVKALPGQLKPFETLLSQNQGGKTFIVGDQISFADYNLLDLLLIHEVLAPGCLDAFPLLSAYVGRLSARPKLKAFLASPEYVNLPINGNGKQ

[2] = cited from earlier work
[3] = biological target: T1, GSTπ (Homo sapiens, UniProt P09211); assay: cellular GSTπ inhibition: immunoprecipitable GSTπ in HL-60 cell lysate, Western blot; type: cell-based
T1 construct: host or cells: HL-60 human promyelocytic leukemia cells
T1 sequence (P09211 2-210 limits assumed): as the sequence (P09211 2-210 limits assumed, species assumed) above
Description: RPMI 1640 medium, NuPAGE® LDS sample buffer (non-reducing lithium dodecyl sulfate buffer, Catalog # NP0007), and NuPAGE® Novex 4-12% Bis-Tris polyacrylamide gels (Catalog # NP0321) were obtained from Invitrogen, Inc., Carlsbad, Calif., U.S.A. Complete Mini protease inhibitor cocktail tablets (Catalog # 04 693 124 001) were obtained from Roche Diagnostics, Inc., Indianapolis, Ind., U.S.A., and were used according to package directions. Lysis buffer (50 mM Tris, pH 8.0, 120 mM NaCl, 0.5% NP-40, and 100 mM NaF) was prepared at Telik, Inc., and the protease inhibitors added shortly before use.
HL-60 cells were seeded at 6×10^5 cells/mL in 20 mL RPMI 1640 medium supplemented with 10% fetal bovine serum, 1 mM L-glutamine and 20 μM gentamycin in each of six T75 flasks, and incubated at 37° C. overnight in a 5% CO2 atmosphere. […] The contents of each flask were then treated as follows: the cells were pelleted by centrifugation and the cell pellet washed twice with phosphate-buffered saline. The cells were then lysed by suspending the pellet in 1 mL lysis buffer, and incubating with gentle agitation at 4° C. for 30 minutes. The cell lysate was cleared by centrifugation at 13,000 rpm for 10 minutes, and the protein content of the lysate was measured using the Bio-Rad protein assay kit. Cell lysate containing 1 mg total proteins was incubated at 4° C. overnight with 4.2 μg of purified mouse monoclonal anti-human GSTπ antibody in 1 mL total volume. Protein A/G agarose beads, 50 μL, were added to the mixture and incubated at 4° C. for 1 hour. The beads were collected by centrifugation, washed three times in lysis buffer, and resuspended in 10 μL 1× non-reducing lithium dodecyl sulfate buffer, and the suspension heated at 95° C. for 5 minutes. The proteins from the six cell lysates, together with a molecular weight marker, were then separated by electrophoresis on a 4-12% Bis-Tris gel and transferred to a nitrocellulose membrane. […] The GSTπ protein bands were visualized and the summed intensities of the GST P1-1 dimer and GST P1 monomer bands quantitated on an Odyssey infrared scanner.

[4] = system: HL-60 promyelocytic leukemia cells; conditions: in vitro; cited from earlier work
[5] = system: hematopoietic progenitor cells in normal human peripheral blood; conditions: all three lineages; cited from earlier work
[6] = normal animals and animals depleted by cisplatin or fluorouracil; cited from earlier work
[7] = MDS clinical trial, interim results; cited from earlier work
[8] = HL-60 cells, 1-40 μM, two hours

Row | inhibition at 20 µM ([3]; HL-60, 20 μM) | cellular GSTπ inhibition (amounts of immunoprecipitable GST P1 and GST P1-1 vs DMSO control) [3, 8] | concentration dependence of cellular GSTπ inhibitory effect [3, 8] | SMILES | IC50 [1] | permeability through cell membrane [2] | differentiation of HL-60 cells [4] | colony formation of hematopoietic progenitor cells [5] | white blood cell production [6] | hematologic response [7] | tolerability [7]
1 |  |  |  | N[C@@H](CCC(=O)N[C@@H](CSCc1ccccc1)C(=O)N[C@@H](C(=O)O)c1ccccc1)C(=O)O [TLK117, L-γ-glutamyl-S-(phenylmethyl)-L-cysteinyl-D-phenylglycine] (γGlu-Cys(Bn)-[dPhg]-OH) | ~0.4 µM | poor permeability |  |  |  |  | 
2 | ~90% | is a cellular GSTπ inhibitor | concentration dependent | CCOC(=O)[C@@H](N)CCC(=O)N[C@@H](CSCc1ccccc1)C(=O)N[C@@H](C(=O)OCC)c1ccccc1 [TLK199] | > 200 µM |  | induce the differentiation | stimulate colony formation | increase white blood cell production | multilineage hematologic improvement | well tolerated
